From ChEMBL document CHEMBL3407485, “Design, synthesis and pharmacological evaluation of novel N-(2-(1, 1-dimethyl-5, 7-dioxo-4, 6-diazaspiro[2.4]heptan-6-yl)ethyl) sulfonamide derivatives as potential anticonvulsant agents” (Eur J Med Chem, 2015)
Activity calls are given as the source filed them. No cut-off for these calls is given here.

Tested on: Mus musculus
Test: Anticonvulsant activity in Kunming mouse assessed as protection against maximal electroshock-induced seizures measured as abolition of hind limb tonic extension spasm at 30 mg/kg, ip after 0.5 hrs
Type: functional, organism-based
Design: dose 30 mg/kg
Settings: Hindlimb
For Cc1ccc(S(=O)(=O)NCCN2C(=O)NC3(CC3(C)C)C2=O)cc1 (racemic), the Activity was “Active”. With CC1(C)CC12NC(=O)N(CCNS(=O)(=O)c1ccc(F)cc1)C2=O (racemic) the Activity was “Active”. For O=C1NC(=O)C(c2ccccc2)(c2ccccc2)N1 [PHENYTOIN], the Activity was “Active”.

Tested on: Mus musculus
Test: Neurotoxicity in Kunming mouse assessed as motor impairment at 100 mg/kg, ip after 0.5 hrs by standardized rotarod test
Type: toxicity, organism-based
Design: dose 100 mg/kg, route intraperitoneal
Settings: in vivo
In the case of CC1(C)CC12NC(=O)N(CCNS(=O)(=O)c1cccs1)C2=O (racemic), the Activity was “Toxic”. With O=C1NC(=O)C(c2ccccc2)(c2ccccc2)N1 [PHENYTOIN] the Activity was “Toxic”.

Tested on: Mus musculus
Test: Neurotoxicity in Kunming mouse assessed as motor impairment at 100 mg/kg, ip after 4 hrs by standardized rotarod test
Type: toxicity, organism-based
Design: dose 100 mg/kg, route intraperitoneal
Settings: in vivo
In the case of O=C1NC(=O)C(c2ccccc2)(c2ccccc2)N1 [PHENYTOIN], the Activity was “Toxic”.

Tested on: Mus musculus
Test: Anticonvulsant activity in Kunming mouse assessed as protection against maximal electroshock-induced seizures measured as abolition of hind limb tonic extension spasm at 300 mg/kg, ip after 4 hrs
Type: functional, organism-based
Design: dose 300 mg/kg
Settings: Hindlimb
In the case of CC1(C)CC12NC(=O)N(CCNS(C)(=O)=O)C2=O (racemic), the Activity was “inactive”. With CN(C)S(=O)(=O)NCCN1C(=O)NC2(CC2(C)C)C1=O (racemic) the Activity was “Active”. For CC1(C)CC12NC(=O)N(CCNS(=O)(=O)c1cccs1)C2=O (racemic), the Activity was “Active”. In the case of CC1(C)CC12NC(=O)N(CCNS(=O)(=O)c1ccc([N+](=O)[O-])cc1)C2=O (racemic), the Activity was “inactive”. In the case of CC1(C)CC12NC(=O)N(CCNS(=O)(=O)c1cccc([N+](=O)[O-])c1)C2=O (racemic), the Activity was “inactive”. With CC(C)c1cc(C(C)C)c(S(=O)(=O)NCCN2C(=O)NC3(CC3(C)C)C2=O)c(C(C)C)c1 (racemic) the Activity was “Active”. For CCOC(=O)C1(NC(=O)NCCNS(C)(=O)=O)CC1(C)C (racemic), the Activity was “inactive”.

Tested on: Mus musculus
Test: Protective index, ratio of TD50 for neurotoxicity in ip dosed Kunming mouse to ED50 for protection against maximal electroshock-induced seizure in ip dosed Kunming mouse
Type: functional
Settings: not given
For Cc1ccc(S(=O)(=O)NCCN2C(=O)NC3(CC3(C)C)C2=O)cc1 (racemic), the “Ratio TD50/ED50” value was 12. For CC1(C)CC12NC(=O)N(CCNS(=O)(=O)c1ccc(F)cc1)C2=O (racemic), the “Ratio TD50/ED50” value was 20.

Tested on: Mus musculus
Test: Neurotoxicity in Kunming mouse assessed as motor impairment at 300 mg/kg, ip after 4 hrs by standardized rotarod test
Type: toxicity, organism-based
Design: dose 300 mg/kg, route intraperitoneal
Settings: in vivo
With CC1(C)CC12NC(=O)N(CCNS(C)(=O)=O)C2=O (racemic) the Activity was “Non-toxic”. For CN(C)S(=O)(=O)NCCN1C(=O)NC2(CC2(C)C)C1=O (racemic), the Activity was “Non-toxic”. In the case of CC1(C)CC12NC(=O)N(CCNS(=O)(=O)c1cccs1)C2=O (racemic), the Activity was “Toxic”. For Cc1ccc(S(=O)(=O)NCCN2C(=O)NC3(CC3(C)C)C2=O)cc1 (racemic), the Activity was “Non-toxic”. In the case of CC1(C)CC12NC(=O)N(CCNS(=O)(=O)c1ccc(F)cc1)C2=O (racemic), the Activity was “Non-toxic”. For CC1(C)CC12NC(=O)N(CCNS(=O)(=O)c1ccc([N+](=O)[O-])cc1)C2=O (racemic), the Activity was “Non-toxic”. For CC1(C)CC12NC(=O)N(CCNS(=O)(=O)c1cccc([N+](=O)[O-])c1)C2=O (racemic), the Activity was “Non-toxic”. With CC(C)c1cc(C(C)C)c(S(=O)(=O)NCCN2C(=O)NC3(CC3(C)C)C2=O)c(C(C)C)c1 (racemic) the Activity was “Non-toxic”. In the case of CCOC(=O)C1(NC(=O)NCCNS(C)(=O)=O)CC1(C)C (racemic), the Activity was “Non-toxic”.

Tested on: Mus musculus
Test: Anticonvulsant activity in ip dosed Kunming mouse assessed as protection against maximal electroshock-induced seizures measured as abolition of hind limb tonic extension spasm after 0.5 hrs
Type: functional
Settings: Hindlimb
Molecule Cc1ccc(S(=O)(=O)NCCN2C(=O)NC3(CC3(C)C)C2=O)cc1 (racemic) has an ED50 of 40.6 mg/kg. CC1(C)CC12NC(=O)N(CCNS(=O)(=O)c1ccc(F)cc1)C2=O (racemic) showed an ED50 of 28.1 mg/kg. For O=C1NC(=O)C(c2ccccc2)(c2ccccc2)N1 [PHENYTOIN], the ED50 was 9.2 mg/kg.

Tested on: Mus musculus
Test: Anticonvulsant activity in Kunming mouse assessed as protection against maximal electroshock-induced seizures measured as abolition of hind limb tonic extension spasm at 30 mg/kg, ip after 4 hrs
Type: functional, organism-based
Design: dose 30 mg/kg
Settings: Hindlimb
For CC1(C)CC12NC(=O)N(CCNS(=O)(=O)c1ccc(F)cc1)C2=O (racemic), the Activity was “Active”. For O=C1NC(=O)C(c2ccccc2)(c2ccccc2)N1 [PHENYTOIN], the Activity was “Active”.

Tested on: Mus musculus
Test: Anticonvulsant activity in Kunming mouse assessed as protection against maximal electroshock-induced seizures measured as abolition of hind limb tonic extension spasm at 100 mg/kg, ip after 4 hrs
Type: functional, organism-based
Design: dose 100 mg/kg
Settings: Hindlimb
With Cc1ccc(S(=O)(=O)NCCN2C(=O)NC3(CC3(C)C)C2=O)cc1 (racemic) the Activity was “Active”.

Tested on: Mus musculus
Test: Anticonvulsant activity in Kunming mouse assessed as protection against subcutaneous pentylenetetrazole-induced seizures at 300 mg/kg, ip after 4 hrs
Type: functional, organism-based
Design: dose 300 mg/kg
Settings: not given
In the case of CC1(C)CC12NC(=O)N(CCNS(C)(=O)=O)C2=O (racemic), the Activity was “inactive”. With CN(C)S(=O)(=O)NCCN1C(=O)NC2(CC2(C)C)C1=O (racemic) the Activity was “inactive”. For CC1(C)CC12NC(=O)N(CCNS(=O)(=O)c1cccs1)C2=O (racemic), the Activity was “inactive”. With Cc1ccc(S(=O)(=O)NCCN2C(=O)NC3(CC3(C)C)C2=O)cc1 (racemic) the Activity was “inactive”. For CC1(C)CC12NC(=O)N(CCNS(=O)(=O)c1ccc(F)cc1)C2=O (racemic), the Activity was “inactive”. In the case of CC1(C)CC12NC(=O)N(CCNS(=O)(=O)c1ccc([N+](=O)[O-])cc1)C2=O (racemic), the Activity was “inactive”. In the case of CC1(C)CC12NC(=O)N(CCNS(=O)(=O)c1cccc([N+](=O)[O-])c1)C2=O (racemic), the Activity was “inactive”. In the case of CC(C)c1cc(C(C)C)c(S(=O)(=O)NCCN2C(=O)NC3(CC3(C)C)C2=O)c(C(C)C)c1 (racemic), the Activity was “inactive”. For CCOC(=O)C1(NC(=O)NCCNS(C)(=O)=O)CC1(C)C (racemic), the Activity was “inactive”. In the case of O=C1NC(=O)C(c2ccccc2)(c2ccccc2)N1 [PHENYTOIN], the Activity was “inactive”.

Tested on: not listed separately
Test: Neurotoxicity in ip dosed Kunming mouse assessed as motor impairment after 4 hrs by standardized rotarod test
Type: toxicity, organism-based
Settings: in vivo
In the case of Cc1ccc(S(=O)(=O)NCCN2C(=O)NC3(CC3(C)C)C2=O)cc1 (racemic), the TD50 at 4 h was 488 mg/kg. With CC1(C)CC12NC(=O)N(CCNS(=O)(=O)c1ccc(F)cc1)C2=O (racemic) the TD50 at 4 h was 561 mg/kg.

Tested on: Mus musculus
Test: Anticonvulsant activity in Kunming mouse assessed as protection against subcutaneous pentylenetetrazole-induced seizures at 300 mg/kg, ip after 0.5 hrs
Type: functional, organism-based
Design: dose 300 mg/kg
Settings: not given
For CC1(C)CC12NC(=O)N(CCNS(C)(=O)=O)C2=O (racemic), the Activity was “inactive”. In the case of CN(C)S(=O)(=O)NCCN1C(=O)NC2(CC2(C)C)C1=O (racemic), the Activity was “inactive”. With CC1(C)CC12NC(=O)N(CCNS(=O)(=O)c1cccs1)C2=O (racemic) the Activity was “inactive”. For Cc1ccc(S(=O)(=O)NCCN2C(=O)NC3(CC3(C)C)C2=O)cc1 (racemic), the Activity was “Active”. For CC1(C)CC12NC(=O)N(CCNS(=O)(=O)c1ccc(F)cc1)C2=O (racemic), the Activity was “Active”. With CC1(C)CC12NC(=O)N(CCNS(=O)(=O)c1ccc([N+](=O)[O-])cc1)C2=O (racemic) the Activity was “inactive”. For CC1(C)CC12NC(=O)N(CCNS(=O)(=O)c1cccc([N+](=O)[O-])c1)C2=O (racemic), the Activity was “inactive”. With CC(C)c1cc(C(C)C)c(S(=O)(=O)NCCN2C(=O)NC3(CC3(C)C)C2=O)c(C(C)C)c1 (racemic) the Activity was “inactive”. With CCOC(=O)C1(NC(=O)NCCNS(C)(=O)=O)CC1(C)C (racemic) the Activity was “inactive”. In the case of O=C1NC(=O)C(c2ccccc2)(c2ccccc2)N1 [PHENYTOIN], the Activity was “inactive”.

Tested on: Mus musculus
Test: Neurotoxicity in Kunming mouse assessed as motor impairment at 300 mg/kg, ip after 0.5 hrs by standardized rotarod test
Type: toxicity, organism-based
Design: dose 300 mg/kg, route intraperitoneal
Settings: in vivo
With CC1(C)CC12NC(=O)N(CCNS(C)(=O)=O)C2=O (racemic) the Activity was “Non-toxic”. In the case of CN(C)S(=O)(=O)NCCN1C(=O)NC2(CC2(C)C)C1=O (racemic), the Activity was “Non-toxic”. With Cc1ccc(S(=O)(=O)NCCN2C(=O)NC3(CC3(C)C)C2=O)cc1 (racemic) the Activity was “Toxic”. In the case of CC1(C)CC12NC(=O)N(CCNS(=O)(=O)c1ccc(F)cc1)C2=O (racemic), the Activity was “Non-toxic”. For CC1(C)CC12NC(=O)N(CCNS(=O)(=O)c1ccc([N+](=O)[O-])cc1)C2=O (racemic), the Activity was “Non-toxic”. In the case of CC1(C)CC12NC(=O)N(CCNS(=O)(=O)c1cccc([N+](=O)[O-])c1)C2=O (racemic), the Activity was “Toxic”. In the case of CC(C)c1cc(C(C)C)c(S(=O)(=O)NCCN2C(=O)NC3(CC3(C)C)C2=O)c(C(C)C)c1 (racemic), the Activity was “Non-toxic”. In the case of CCOC(=O)C1(NC(=O)NCCNS(C)(=O)=O)CC1(C)C (racemic), the Activity was “Non-toxic”.

Tested on: Mus musculus
Test: Anticonvulsant activity in Kunming mouse assessed as protection against maximal electroshock-induced seizures measured as abolition of hind limb tonic extension spasm at 300 mg/kg, ip after 0.5 hrs
Type: functional, organism-based
Design: dose 300 mg/kg
Settings: Hindlimb
In the case of CC1(C)CC12NC(=O)N(CCNS(C)(=O)=O)C2=O (racemic), the Activity was “inactive”. For CN(C)S(=O)(=O)NCCN1C(=O)NC2(CC2(C)C)C1=O (racemic), the Activity was “inactive”. With CC1(C)CC12NC(=O)N(CCNS(=O)(=O)c1ccc([N+](=O)[O-])cc1)C2=O (racemic) the Activity was “Active”. In the case of CCOC(=O)C1(NC(=O)NCCNS(C)(=O)=O)CC1(C)C (racemic), the Activity was “inactive”.

Tested on: Mus musculus
Test: Anticonvulsant activity in Kunming mouse assessed as protection against maximal electroshock-induced seizures measured as abolition of hind limb tonic extension spasm at 100 mg/kg, ip after 0.5 hrs
Type: functional, organism-based
Design: dose 100 mg/kg
Settings: Hindlimb
In the case of CC1(C)CC12NC(=O)N(CCNS(=O)(=O)c1cccs1)C2=O (racemic), the Activity was “Active”. With CC1(C)CC12NC(=O)N(CCNS(=O)(=O)c1cccc([N+](=O)[O-])c1)C2=O (racemic) the Activity was “Active”. For CC(C)c1cc(C(C)C)c(S(=O)(=O)NCCN2C(=O)NC3(CC3(C)C)C2=O)c(C(C)C)c1 (racemic), the Activity was “Active”.
